Results: US11702404B2, “GLP-1R modulating compounds” (priority 2019, dated 2023)
Like-named read-outs stand apart in the source and are kept apart here.

Key:
GLP-1R = GLP-1R (Homo sapiens, UniProt P43220); experiment: GLP-1R activation: cAMP increase in CHO cells stably expressing GLP-1R; type: cell-based
[1] = Microsomal stability, human liver microsomes (predicted hepatic clearance); settings: predicted from in vitro microsomal stability data
[2] = cAMP increase, CHO cells stably expressing GLP-1R, 10 point dose response, 30 minutes incubation, read-out: EC50

GLP-1R, sequence (P43220 24-463): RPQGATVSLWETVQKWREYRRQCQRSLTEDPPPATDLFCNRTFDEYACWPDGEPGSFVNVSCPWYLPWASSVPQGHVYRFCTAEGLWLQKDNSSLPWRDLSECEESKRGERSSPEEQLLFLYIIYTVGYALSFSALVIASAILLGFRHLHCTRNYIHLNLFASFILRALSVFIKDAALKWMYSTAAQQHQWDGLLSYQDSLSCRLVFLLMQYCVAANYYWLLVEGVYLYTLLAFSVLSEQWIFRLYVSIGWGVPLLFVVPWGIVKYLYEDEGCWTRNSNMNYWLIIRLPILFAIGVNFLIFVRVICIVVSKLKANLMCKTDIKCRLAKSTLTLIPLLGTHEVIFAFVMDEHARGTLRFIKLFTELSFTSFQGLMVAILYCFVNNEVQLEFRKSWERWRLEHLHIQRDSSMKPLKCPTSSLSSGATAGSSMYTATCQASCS

In the case of N#Cc1ccc(COc2cccc(-c3cc(F)c(Cc4nc5ccc(C(=O)O)cc5n4Cc4ccccn4)cc3F)n2)c(F)c1 [Example 311, 2-(4-(6-((4-cyano-2-fluorobenzyl)oxy)pyridin-2-yl)-2,5-difluorobenzyl)-1-(pyridin-2-ylmethyl)-1H-benzo[d]imidazole-6-carboxylic acid], the EC50 (GLP-1R; [2]) is reported as 95.6 nM and the “Predicted Hepatic Clearance (Pred. Cl.)” value [1] is reported as 7 mL/min/kg.

For Cc1cc(Cn2c(Cc3ccc(-c4cccc(OCc5ccc(C#N)cc5F)n4)cc3F)nc3ccc(C(=O)O)cc32)no1 [Example 606], the EC50 (GLP-1R; [2]) was 178 nM and the “Predicted Hepatic Clearance (Pred. Cl.)” value [1] was 1.83 mL/min/kg.

With COCCn1c(Cc2cc(F)c(-c3cccc(OCc4ccc(C#N)cc4COC)n3)cc2F)nc2ccc(C(=O)O)cc21 [Example 844, 2-(4-(6-((4-cyano-2-(methoxymethyl)benzyl)oxy)pyridin-2-yl)-2,5-difluorobenzyl)-1-(2-methoxyethyl)-1H-benzo[d]imidazole-6-carboxylic acid] the EC50 (GLP-1R; [2]) was 13 nM and the “Predicted Hepatic Clearance (Pred. Cl.)” value [1] was 2.5 mL/min/kg.

For COCCn1c(Cc2cc(F)c(-c3cccc(OCc4ccc(C#N)cc4F)n3)cc2F)nc2ccc(-c3nn[nH]n3)cc21 [Example 104, 4-[[6-[2,5-difluoro-4-[[1-(2-methoxyethyl)-6-(2H-tetrazol-5-yl)benzimidazol-2-yl]methyl]phenyl]-2-pyridyl]oxymethyl]-3-fluoro-benzonitrile], the EC50 (GLP-1R; [2]) was 21.4 nM and the “Predicted Hepatic Clearance (Pred. Cl.)” value [1] was 12.7 mL/min/kg.

For O=C(O)c1ccc2nc(Cc3cc(F)c(-c4cccc(OCc5ccc(Cl)cc5)n4)cc3F)n(C[C@@H]3CCO3)c2c1 [Example 808], the EC50 (GLP-1R; [2]) was 0.05 nM and the “Predicted Hepatic Clearance (Pred. Cl.)” value [1] was 3.5 mL/min/kg.

With COCCn1c(Cc2cc(F)c(-c3cccc(OCc4ccc(Cl)c(F)c4F)n3)cc2F)nc2ccc(C(=O)O)cc21 [Example 802] the EC50 (GLP-1R; [2]) was 3.64 nM and the “Predicted Hepatic Clearance (Pred. Cl.)” value [1] was 2.33 mL/min/kg.

For COCCn1c(Cc2ccc(-c3cccc(NCc4ccc(C#N)cc4OC)n3)cc2F)nc2ccc(C(=O)O)cc21 [Example 195], the EC50 (GLP-1R; [2]) was 15.8 nM and the “Predicted Hepatic Clearance (Pred. Cl.)” value [1] was 9.5 mL/min/kg.

With N#Cc1ccc(COc2nccc(-c3ccc(Cc4nc5ccc(C(=O)O)cc5n4C[C@@H]4CCO4)c(F)c3)n2)c(F)c1 [Example 351, (S)-2-(4-(2-((4-cyano-2-fluorobenzyl)oxy)pyrimidin-4-yl)-2-fluorobenzyl)-1-(oxetan-2-ylmethyl)-1H-benzo[d]imidazole-6-carboxylic acid] the EC50 (GLP-1R; [2]) was 0.96 nM and the “Predicted Hepatic Clearance (Pred. Cl.)” value [1] was 2 mL/min/kg.

For COCCn1c(Cc2cc(F)c(-c3cccc(OCc4cccc(Br)c4)n3)cc2F)nc2ccc(C(=O)O)cc21 [Example 876], the EC50 (GLP-1R; [2]) was 27.6 nM and the “Predicted Hepatic Clearance (Pred. Cl.)” value [1] was 1.83 mL/min/kg.

For COCCn1c(Cc2ccc(-c3cccc(OCc4ccc(C#N)c(F)c4OC)n3)cc2F)nc2ccc(C(=O)O)cc21 [Example 363, 2-(4-(6-((4-cyano-3-fluoro-2-methoxybenzyl)oxy)pyridin-2-yl)-2-fluorobenzyl)-1-(2-methoxyethyl)-1H-benzo[d]imidazole-6-carboxylic acid], the EC50 (GLP-1R; [2]) was 8.96 nM and the “Predicted Hepatic Clearance (Pred. Cl.)” value [1] was 7.75 mL/min/kg.

In the case of COCCn1c(Cc2cnc(-c3cccc(OCc4ccc(C#N)cc4F)n3)nc2)nc2ccc(C(=O)O)cc21 [Example 44, 2-((2-(6-((4-cyano-2-fluorobenzyl)oxy)pyridin-2-yl)pyrimidin-5-yl)methyl)-1-(2-methoxyethyl)-1H-benzo[d]imidazole-6-carboxylic acid], the EC50 (GLP-1R; [2]) is reported as 212 nM and the “Predicted Hepatic Clearance (Pred. Cl.)” value [1] is reported as 3 mL/min/kg.

For COCCn1c(Cc2cc(F)c(-c3cccc(OCc4cc(F)c(C(F)(F)F)cc4F)n3)cc2F)nc2ccc(C(=O)O)cc21 [Example 867], the EC50 (GLP-1R; [2]) was 2.41 nM and the “Predicted Hepatic Clearance (Pred. Cl.)” value [1] was 1.83 mL/min/kg.

With COCCn1c(Cc2ccc(-c3cccc(NC(=O)c4ccc(C#N)cc4F)n3)cc2F)nc2ccc(C(=O)O)cc21 [Example 113, 2-(4-(6-(4-cyano-2-fluorobenzamido)pyridin-2-yl)-2-fluorobenzyl)-1-(2-methoxyethyl)-1H-benzo[d]imidazole-6-carboxylic acid] the EC50 (GLP-1R; [2]) was 2150 nM and the “Predicted Hepatic Clearance (Pred. Cl.)” value [1] was 9.83 mL/min/kg.

With O=C(O)c1ccc2nc(Cc3cc(F)c(-c4ccc(F)c(OCc5ccc(C(F)F)cc5F)n4)cc3F)n(CC34CC(CO3)C4)c2c1 [Example 772] the EC50 (GLP-1R; [2]) was 0.61 nM and the “Predicted Hepatic Clearance (Pred. Cl.)” value [1] was 1.83 mL/min/kg.

With CC(=O)N1CC(F)(F)C[C@@H]1Cn1c(Cc2cc(F)c(-c3cccc(OCc4ccc(C#N)cc4F)n3)cc2F)nc2ccc(C(=O)O)cc21 [Example 539, (R)-1-((1-acetyl-4,4-difluoropyrrolidin-2-yl)methyl)-2-(4-(6-((4-cyano-2-fluorobenzyl)oxy)pyridin-2-yl)-2,5-difluorobenzyl)-1H-benzo[d]imidazole-6-carboxylic acid] the EC50 (GLP-1R; read-out: EC50) was 0.7 nM and the “Predicted Hepatic Clearance (Pred. Cl.)” value [1] was 6.33 mL/min/kg.

With COCCn1c(Cn2cc(F)c(-c3cccc(OCc4ccc(C#N)cc4F)n3)cc2=O)nc2ccc(C(=O)O)cc21 [Example 434] the EC50 (GLP-1R; [2]) was 2.86 nM and the “Predicted Hepatic Clearance (Pred. Cl.)” value [1] was 3.17 mL/min/kg.

In the case of CO[C@H](C)Cn1c(Cc2ccc(-c3cccc(OCc4ccc(C#N)cc4F)n3)cc2F)nc2ccc(C(=O)O)cc21 [Example 327, (R)-2-(4-(6-((4-cyano-2-fluorobenzyl)oxy)pyridin-2-yl)-2-fluorobenzyl)-1-(2-methoxypropyl)-1H-benzo[d]imidazole-6-carboxylic acid], the EC50 (GLP-1R; [2]) is reported as 7.73 nM and the “Predicted Hepatic Clearance (Pred. Cl.)” value [1] is reported as 3 mL/min/kg.

With COCCn1c(C2CCOc3cc(-c4cccc(OCc5ccc(C#N)cc5F)n4)ccc32)nc2ccc(C(=O)O)cc21 (stereo not shown) [Example 41, 2-(7-(6-((4-cyano-2-fluorobenzyl)oxy)pyridin-2-yl)chroman-4-yl)-1-(2-methoxyethyl)-1H-benzo[d]imidazole-carboxylic acid] the EC50 (GLP-1R; [2]) was 1460 nM and the “Predicted Hepatic Clearance (Pred. Cl.)” value [1] was 6 mL/min/kg.

With CC(=O)N1CC[C@@H]1Cn1c(Cc2cc(F)c(-c3cccc(OCc4ccc(C#N)cc4F)n3)cc2F)nc2ccc(C(=O)O)cc21 (single isomer, unassigned) [Example 689] the EC50 (GLP-1R; read-out: EC50) was 0.56 nM and the “Predicted Hepatic Clearance (Pred. Cl.)” value [1] was 5.17 mL/min/kg.

In the case of COCCn1c(Cc2cc(F)c(-c3cccc(OCc4ccc(C#N)c(F)c4)n3)cc2F)nc2ccc(C(=O)O)cc21 [Example 603, 2-(4-(6-((4-cyano-3-fluorobenzyl)oxy)pyridin-2-yl)-2,5-difluorobenzyl)-1-(2-methoxyethyl)-1H-benzo[d]imidazole-6-carboxylic acid], the EC50 (GLP-1R; EC50 (nM)) is reported as 4.13 nM and the “Predicted Hepatic Clearance (Pred. Cl.)” value [1] is reported as 2.83 mL/min/kg.

With COCCn1c(Cc2ccc(-c3cccc(OCc4ccc(C#N)cc4F)n3)cc2F)nc2ccc(C(=O)O)cc21 [Example 2, 2-(4-(6-((4-cyano-2-fluorobenzyl)oxy)pyridin-2-yl)-2-fluorobenzyl)-1-(2-methoxyethyl)-1H-benzo[d]imidazole-6-carboxylic acid] the EC50 (GLP-1R; [2]) was 2.3 nM and the “Predicted Hepatic Clearance (Pred. Cl.)” value [1] was 2.33 mL/min/kg.

With CCn1cncc1Cn1c(Cc2ccc(-c3cccc(OCc4ccc(C#N)cc4F)c3)cc2F)nc2ccc(C(=O)O)cc21 [Example 527, 2-((3′-((4-cyano-2-fluorobenzyl)oxy)-3-fluoro-[1,1′-biphenyl]-4-yl)methyl)-1-((1-ethyl-1H-imidazol-5-yl)methyl)-1H-benzo[d]imidazole-6-carboxylic acid] the EC50 (GLP-1R; [2]) was 1.84 nM and the “Predicted Hepatic Clearance (Pred. Cl.)” value [1] was 3.67 mL/min/kg.

For N#Cc1ccc(COc2cccc(-c3ccc(Cc4nc5ccc(C(=O)O)cc5n4C[C@H]4CCOC4)c(F)c3)n2)c(F)c1 [Example 196, (R)-2-(4-(6-((4-cyano-2-fluorobenzyl)oxy)pyridin-2-yl)-2-fluorobenzyl)-1-((tetrahydrofuran-3-yl)methyl)-1H-benzo[d]imidazole-carboxylic acid], the EC50 (GLP-1R; [2]) was 4.61 nM and the “Predicted Hepatic Clearance (Pred. Cl.)” value [1] was 5.83 mL/min/kg.

With N#Cc1ccc(COc2ncc(F)c(-c3cc(F)c(Cc4nc5ccc(C(=O)O)cc5n4C[C@@H]4CCO4)cc3F)n2)c(F)c1 [Example 879, 2-[[4-[2-[(4-cyano-2-fluoro-phenyl)methoxy]-5-fluoro-pyrimidin-4-yl]-2,5-difluoro-phenyl]methyl]-3-[[(2S)-oxetan-2-yl]methyl]benzimidazole-5-carboxylic acid] the EC50 (GLP-1R; [2]) was 0.51 nM and the “Predicted Hepatic Clearance (Pred. Cl.)” value [1] was 6 mL/min/kg.

For COCCn1c(Cc2ccc(-c3cccc(OCc4ccc(C#N)cc4F)n3)cc2NC(=O)OC)nc2ccc(C(=O)O)cc21 [Example 383, 2-(4-(6-((4-cyano-2-fluorobenzyl)oxy)pyridin-2-yl)-2-((methoxycarbonyl)amino)benzyl)-1-(2-methoxyethyl)-1H-benzo[d]imidazole-6-carboxylic acid], the EC50 (GLP-1R; EC50 (nM)) was 123 nM and the “Predicted Hepatic Clearance (Pred. Cl.)” value [1] was 8.67 mL/min/kg.

In the case of N#Cc1ccc(COc2cccc(-c3ccc(Cc4nc5c(F)cc(C(=O)O)cc5n4Cc4ncco4)c(F)c3)n2)c(F)c1 [Example 625], the EC50 (GLP-1R; [2]) is reported as 0.63 nM and the “Predicted Hepatic Clearance (Pred. Cl.)” value [1] is reported as 2.67 mL/min/kg.

In the case of COC(CNC(C)=O)Cn1c(Cc2ccc(-c3cccc(OCc4ccc(C#N)cc4F)n3)cc2F)nc2ccc(C(=O)O)cc21 (single isomer, unassigned) [Example 342, 1-(3-acetamido-2-methoxypropyl)-2-(4-(6-((4-cyano-2-fluorobenzyl)oxy)pyridin-2-yl)-2-fluorobenzyl)-1H-benzo[d]imidazole-6-carboxylic acid], the EC50 (GLP-1R; [2]) is reported as 3360 nM and the “Predicted Hepatic Clearance (Pred. Cl.)” value [1] is reported as 4 mL/min/kg.

For COCCn1c(Cc2cc(F)c(-c3cccc(OCc4ccc(Cl)nc4)n3)cc2F)nc2ccc(C(=O)O)cc21 [Example 813], the EC50 (GLP-1R; [2]) was 2.98 nM and the “Predicted Hepatic Clearance (Pred. Cl.)” value [1] was 1.83 mL/min/kg.

In the case of COCCn1c(Cc2ccc(-c3cccc(OCc4ccc(Cl)cc4OC)n3)cc2F)nc2ccc(C(=O)O)cc21 [Example 247, 2-(4-(6-((4-chloro-2-methoxybenzyl)oxy)pyridin-2-yl)-2-fluorobenzyl)-1-(2-methoxyethyl)-1H-benzo[d]imidazole-6-carboxylic acid], the EC50 (GLP-1R; [2]) is reported as 2.2 nM and the “Predicted Hepatic Clearance (Pred. Cl.)” value [1] is reported as 6.83 mL/min/kg.
